Here are results for three compounds from patent US20140045809A1, “CORROLES FOR NEUROPROTECTION AND NEURORESCUE” (priority 2008, published 2014).

Read-outs that look alike come from different tables or passages of the source.

Assay [1] relates to nigral dopaminergic neurons. To be noted: MPTP model, also given post-MPTP; Gal et al., 2005; cited from earlier work.
Assay [2] deals with RIN-m cells. The experiment in a line: Protection of RIN-m beta cells against H2O2 toxicity (MTT). The assay is classed as cell-based, rat. To be noted: 20 μM, 30 min before 35 μM H2O2, 24 h. How it is done:
Two insulin-secreting beta cell lines, rat insulinoma (INS-1E) and RIN-m cells, were used to examine the protective effect of corrole 1C-Fe. The cells were cultured at 37° C., in a humid 5% CO2, 95% air environment in regular RPMI-1640 medium (Invitrogen) supplemented with 5% fetal calf serum (FCS).
After 2 days of culture, RIN-m cells (5×10^4 cells/well in 96-well plates) were treated with corrole 1C-Fe (1-50 μM) before addition of 35 μM of H2O2. Cell viability was evaluated by a colorimetric assay for mitochondrial function estimation using the MTT test as previously described (Gassen et al., 1998) and expressed as percentage of control.
RIN-m cells were grown as described in Example 5. After 3 days of culture, RIN-m cells (2.5×10^4 cells/well in 96-well plates) were treated with corroles 1C-Fe or 5C-Fe or porphyrin 1P-Fe (1 and 20 μM), added 30 min prior to treatment with 35 μM H2O2 and further incubated for 24 h. Cell injury was evaluated by MTT test. […] […].
Protective effect of iron(III) corrole complexes against H2O2-induced toxicity (150 μM) was compared to that of manganese(III) corroles and related porphyrin. […].

Assay [3] has as its system INS-1E cells. The experiment in a line: Protection of INS-1E cells against SIN-1 toxicity (MTT). Type of assay: cell-based, rat. To be noted: 10 μM, 30 min before SIN-1 (500 or 600 μM), 24 h. Here is the method:
(§1) INS-1E cells or RIN-m cells were cultured in RPMI with low serum content (2% FCS), placed in microtiter plates (96 wells) at a density of 2.5×10^4 cells/well and allowed to attach for 24 h before treatment. Corroles 1C-Fe and 5C-Fe (10 μM) were added 30 min prior to insult with the nitric oxide donor SIN-1 (500 or 600 μM) for a subsequent 24 h period. Cell viability was evaluated by a colorimetric assay for mitochondrial function using 3-(4,5-dimethylthiazol-2-yl)-2,5-diphenyltetrazolium bromide (MTT test), and expressed as percentage of untreated control. Values higher than 100% reflect increased mitochondrial activity induced by the drug. The results represent the mean±SEM of three independent experiments performed under the same conditions.

In assay [4] the test system is RIN-m cells. The experiment in a line: Protection of RIN-m cells against SIN-1 toxicity (MTT). The assay is classed as cell-based, rat. To be noted: 10 μM, 30 min before SIN-1 (500 or 600 μM), 24 h. How it is done: as §1
Insulin-secreting RIN-m cells were incubated in RPMI with low serum content (2% FCS) and placed in microtiter plates (96 wells) at a density of 2.5×10^4 cells/well and allowed to attach for 24 h before treatment. Cells were treated with corroles 1C-Fe, 1C-Mn or 2C-Mn or porphyrins 1P-Fe or 2P-Mn, in various concentrations (0.1-20 μM), for 30 min prior to insult with SIN-1 (800 μM) for a subsequent 24 h period. Cell viability was evaluated by MTT test and expressed as percentage of untreated control.

Assay [5] has as its system SH-SY5Y cells. Type of assay: cell-based. How it is done:
Human neuroblastoma cell line was also examined under conditions similar to RIN-m cells to reveal the corrole's ability to prevent neuronal death caused by oxidative stress. SH-SY5Y cells were plated in microtiter plates (96 wells) in DMEM-Eagle/F-12(HAM) (1:1), containing 10% FCS. To examine neuroprotective effect, SH-SY5Y cells were treated for 30 min with corroles 1C-Fe and 5C-Fe (20 and 50 μM) before addition of 20 μM H2O2 for 24 h. To examine neurorescue, SH-SY5Y cells were first exposed to 20 μM H2O2 for 0.5 h, 1.5 h or 3 h, followed by the addition of corroles 1C-Fe and 5C-Fe (20 μM) and incubation for 24 h.
Compounds 1C-Fe and 1P-Fe (1-50 μM) were added 30 min before insult with H2O2 (200 μM), followed by a subsequent 24 h period. The neuroprotective effects of the iron corrole 1C-Fe and its structurally analogous iron porphyrin 1P-Fe, against H2O2-induced neurotoxicity were investigated using MTT reduction assay and cell death ELISA, based on the use of mouse monoclonal antibodies to detect free histones and fragmented DNA (F. Hollderieder et al, Biochemica 2002, 1, 25). […] In light of the observed neuroprotective effect of corrole 1C-Fe, we attempted to determine the length of the delay between H2O2 exposure and corrole 1C-Fe treatment that would still afford neuroprotection. H2O2 was administered to SH-SY5Y cells and corrole 1C-Fe was then added for 0.5-1.5 h thereafter. […]

Assay [6] relates to SH-SY5Y cells. The experiment in a line: Neuroprotection/neurorescue against SIN-1-induced cell death in SH-SY5Y cells. The settings on record: 24 h (Example 11). Type of assay: cell-based, human. Here is the method:
SH-SY5Y cells were cultured in DMEM-Eagle/F-12(HAM) (1:1) containing 10% FCS. Cells were resuspended in medium containing 2% FCS, seeded in microtiter plates (96 wells) and allowed to attach for 24 h before initiation of treatment. […]

Assay [7] concerns SH-SY5Y cells. The assay is classed as cell-based. To be noted: 24 h. Here is the method: SH-SY5Y cells were cultured in DMEM-Eagle/F-12(HAM) (1:1) containing 10% FCS. Cells were resuspended in medium containing 2% FCS, seeded in microtiter plates (96 wells) and allowed to attach for 24 h. To examine the neuroprotective effect, cells were pretreated for 30 min with corroles 1C-Fe and 5C-Fe (1-20 μM), and were then exposed to 6-OHDA (60 μM) for further 24 h. For neurorescue assessment, SH-SY5Y cells were first treated with 6-OHDA (60 μM) for 0.5 h, 1.5 h, 3 h and 6 h followed by the addition of compounds 1C-Fe and 5C-Fe (10 μM) for further 24 h.
SH-SY5Y cells were pretreated with or without corroles 1C-Fe, 2C-Mn and 3C-Mn and porphyrins 1P-Fe and 2P-Mn (20 μM), 30 min before exposure to 6-OHDA (40 μM) for a subsequent 24 h period. Cell viability was evaluated by MTT test and cell death was assessed using the apoptotic cell death detection ELISA kit. For neurorescue, SH-SY5Y cells were first exposed to 40 μM 6-OHDA for 0.5. 1, 1.5 and 3 h, followed by the addition of the compounds 1C-Fe, 2C-Mn and 3C-Mn (20 μM) and incubated for further 24 h. Growth-associated protein (GAP-43) was detected by fluorescence microscopy using a specific primary antibody. Apoptotic nuclei were determined by terminal deoxynucleotidyl transferase-mediated UTP-digoxigenin nick end labeling analysis. 4′,6-Diamidino-2-phenylnidole (DAPI) staining was applied for nuclear labeling. […]

In assay [8] the test system is NSC-34 G93A cells. The experiment in a line: Cell culture model of familial ALS, NSC-34 cells expressing mutant G93A-SOD1. Type of assay: cell-based, mouse. To be noted: 48 h induction; even at a concentration as low as 0.5 μM. How it is done: Mutant-superoxide dismutase (G93A-SOD1) is associated with familial amyotrophic lateral sclerosis (FALS). A cell culture model of FALS was implemented by stably transfecting mouse motoneuronal NSC-34 cells or SH-SY5Y cells, to express mutant G93A-SOD1 at levels approximating those seen in the human disease. NSC-34 cells or SH-SY5Y cells were incubated in Dulbecco's modified Eagle's/F-12 medium supplemented with 10% FCS tetracycline-free (FCS Tet-free; Clontech), at 37° C. in an atmosphere of 5% CO2 in air. These cell lines are stably transfected with the pTet-ON plasmid (Clontech, Palo Alto, Calif.) coding for the reverse tetracycline controlled transactivator (rtTA). Induction of mutant SOD1 expression was obtained by shifting nonconfluent cultures into growth medium containing 1% N2 supplement (Invitrogen, Carlsbad, Calif.) and […] doxocyclin for 48 h in the presence or absence of corrole 1C-Fe and 5C-Fe.

Assay [9] concerns the target T1, MAO-A (Mus musculus, UniProt Q64133).
T1 construct: host or cells: brain and peripheral organs of treated animals
T1 sequence (Q64133 1-526): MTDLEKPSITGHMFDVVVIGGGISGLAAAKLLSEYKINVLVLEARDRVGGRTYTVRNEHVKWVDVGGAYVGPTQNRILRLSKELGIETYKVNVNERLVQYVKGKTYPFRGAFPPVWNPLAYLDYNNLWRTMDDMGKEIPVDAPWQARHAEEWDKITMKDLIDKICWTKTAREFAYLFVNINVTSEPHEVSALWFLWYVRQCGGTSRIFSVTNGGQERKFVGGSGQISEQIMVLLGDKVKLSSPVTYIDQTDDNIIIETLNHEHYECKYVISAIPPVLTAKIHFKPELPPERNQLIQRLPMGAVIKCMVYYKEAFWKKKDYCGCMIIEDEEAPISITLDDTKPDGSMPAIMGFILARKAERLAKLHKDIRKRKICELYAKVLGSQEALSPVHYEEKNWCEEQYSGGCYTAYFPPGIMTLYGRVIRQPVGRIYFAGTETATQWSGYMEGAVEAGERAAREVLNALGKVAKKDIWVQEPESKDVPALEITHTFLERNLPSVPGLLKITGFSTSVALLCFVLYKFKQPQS
To be noted: Gal et al., 2005, cited from earlier work.

The target of assay [10] is T2, MAO-B (Mus musculus, UniProt Q8BW75).
T2 construct: host or cells: brain and peripheral organs of treated animals
T2 sequence (Q8BW75 1-520): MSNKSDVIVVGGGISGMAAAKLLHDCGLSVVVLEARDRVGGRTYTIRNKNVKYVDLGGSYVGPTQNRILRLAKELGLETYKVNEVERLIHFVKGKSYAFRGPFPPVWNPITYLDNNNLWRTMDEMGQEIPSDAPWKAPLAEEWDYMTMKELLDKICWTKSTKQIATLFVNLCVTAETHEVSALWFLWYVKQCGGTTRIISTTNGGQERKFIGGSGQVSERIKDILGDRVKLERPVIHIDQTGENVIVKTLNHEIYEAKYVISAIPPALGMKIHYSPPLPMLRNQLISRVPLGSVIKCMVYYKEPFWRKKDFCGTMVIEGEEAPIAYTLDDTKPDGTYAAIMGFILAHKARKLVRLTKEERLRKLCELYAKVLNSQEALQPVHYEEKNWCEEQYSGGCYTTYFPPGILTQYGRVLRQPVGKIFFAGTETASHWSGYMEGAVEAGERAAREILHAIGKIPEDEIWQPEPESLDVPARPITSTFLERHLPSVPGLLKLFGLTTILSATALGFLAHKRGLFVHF
To be noted: Gal et al., 2005, cited from earlier work.

`C#CCN[C@@H]1CCc2ccccc21` [rasagiline]: the “neuroprotection and restoration of nigral dopaminergic neurons” value in assay [1] is “neuroprotective and also have the ability to restore nigral dopaminergic neurons when given post-MPTP”.
On to `O=C(O)CNS(=O)(=O)c1cc2[n]3c1C(c1c(F)c(F)c(F)c(F)c1F)=C1C=CC4=[N+]1[Fe-]31[n]3c(cc(S(=O)(=O)NCC(=O)O)c3-2)C(c2c(F)c(F)c(F)c(F)c2F)=c2ccc([n]21)=C4c1c(F)c(F)c(F)c(F)c1F` (stereo not shown) [5C-Fe, 2,17-bis(N-sulfonylglycine)-5,10,15-tris(pentafluoro-phenyl)-corrolato iron(III)], for which the “protective effect against H2O2 toxicity relative to porphyrin 1P-Fe (MTT)” value in assay [2] is “exhibit a greater protective effect”. Also, the “protective effect against SIN-1 induced toxicity (MTT)” value in [3] and in assay [4] was “marked protective effect” in each case. For the same compound, the “neurorescue after H2O2 insult” value in assay [5] (20 μM H2O2 for 0.5, 1.5 or 3 h, then 20 μM corrole, 24 h) is given as “instigated neurorescue”. Besides, in assay [5] (20 and 50 μM, 30 min before 20 μM H2O2, 24 h), the “neuroprotective effect against H2O2-induced toxicity” value is given as “dose-dependent neuroprotective effect”. The “neurorescue after SIN-1 insult” value in [6] (20 μM added 0.5, 1.5 or 3 h after insult) is given as “instigated neurorescue”. Moreover, the “neuroprotective effect against SIN-1 induced toxicity” value in [6] (10 and 20 μM, 30 min pretreatment) is reported as “dose-dependent neuroprotective effect”. In addition, the “neuroprotective effect against 6-OHDA-induced toxicity” value in [7] (1-20 μM, 30 min before 6-OHDA (60 μM)) was “dose-dependent neuroprotective effect”. For the same compound, the “neurorescue after 6-OHDA insult” value in [7] (6-OHDA (60 μM) for 0.5, 1.5, 3 and 6 h, then 10 μM) is “instigated neurorescue”. Further, in [8], the “cell viability of induced mutant cells” value was “significantly improved cell viability”.
On to `C#CCN(C)Cc1ccc(O)c2ncccc12` [M-30], for which, in assay [1], the “neuroprotection and restoration of nigral dopaminergic neurons” value was “neuroprotective and also have the ability to restore nigral dopaminergic neurons when given post-MPTP”. For the same compound, the MAO-A inhibition result in assay [9] (in peripheral organs) is “poorly”; in [9] (in the brain) it was “potently inhibits”. In addition, the MAO-B inhibition result is recorded as “poorly” in assay [10] (in peripheral organs) and “potently inhibits” in [10] (in the brain).
